Measurements reported in EP4656642A1, “ESTROGEN RECEPTOR PROTEOLYSIS TARGETING CHIMERA COMPOUND AND USE THEREOF” (GAN & LEE PHARM CO., LTD, priority 2023, dated 2024).

What was measured:
VCaP cells = experiment: Inhibition of proliferation of VCaP cells (WST-8, 168 hours); format: cell-based; conditions: VCaP cells, 168 hours, WST-8
Procedure: Test Example 7 Inhibitory activity of the compounds disclosed in the present disclosure on the proliferation of VCaP cells
VCaP cells (ATCC, CRL-2876) were cultured in DMEM (Gibco, 11995-065) complete medium containing 10% fetal bovine serum (Hyclone, SH30406.05). On the first day of the experiment, VCaP cells were inoculated in 96-well plates at a density of 15,000 cells/well using DMEM medium containing 10% fetal bovine serum, with 100µL of cell suspension per well, and placed in a cell culture incubator with 5% CO2 at 37°C overnight. […] The compound concentrations were prepared in complete DMEM medium and serially diluted 5-fold starting from 10 µM, resulting in a total of nine concentration points. Wells receiving 100 µL of DMEM medium containing 10% FBS only were used as blank controls. The plates were incubated at 37°C in a 5% CO2 incubator for 168 hours.

LNCAP FGC cells = experiment: Inhibition of LNCAP cell proliferation (WST-8, 96 hours); format: cell-based; conditions: LNCAP FGC cells, 96 hours, WST-8
Procedure: Test Example 8 Inhibitory activity of the compounds disclosed in the present disclosure on LNCAP cell proliferation
LNCAP FGC cells (ATCC, CLR-1740) were cultured in RPMI 1640 (ATCC, 30-2001) complete medium containing 10% fetal bovine serum (Hyclone, SH30406.05). On the first day of the experiment, LNCaP FGC cells were inoculated in 96-well plates at a density of 5,000 cells/well using RPMI 1640 medium containing 10% fetal bovine serum, with 100µL of cell suspension per well, and placed in a cell culture incubator with 5% CO2 at 37°C overnight. […] The compound concentrations were prepared in complete […] medium and serially diluted 5-fold starting from 10 µM, resulting in a total of nine concentration points. Wells receiving 100 µL of RPMI 1640 medium containing 10% FBS only were used as controls. The plates were incubated at 37°C in a 5% CO2 incubator for 96 hours.

COc1cc(O[C@H]2CC[C@H](NC(=O)c3ccc(N4CCC(C)(CN5CCC6(CC5)COc5c6ccc6c5C(=O)N(C5CCC(=O)NC5=O)C6)CC4)nn3)CC2)ccc1C#N (relative stereo) [2-261]
IC50 (VCaP cells): 12 nM
IC50 (LNCAP FGC cells): 49100 nM

CC1(CN2CCC3(CC2)COc2c3ccc3c2C(=O)N(C2CCC(=O)NC2=O)C3)CCN(c2ccc(C(=O)N[C@H]3CC[C@H](Oc4ccc(C#N)c(Cl)c4)CC3)nn2)CC1 (relative stereo) [2-262]
IC50 (VCaP cells): 11 nM
IC50 (LNCAP FGC cells): 21300 nM

COC1(CN2CCC3(CC2)COc2c3ccc3c2C(=O)N(C2CCC(=O)NC2=O)C3)CCN(c2ccc(C(=O)N[C@H]3CC[C@H](Oc4ccc(C#N)c(Cl)c4)CC3)nn2)CC1 (relative stereo) [2-263]
IC50 (VCaP cells): 11 nM
IC50 (LNCAP FGC cells): 6300 nM

COc1cc(O[C@H]2C(C)(C)[C@H](NC(=O)c3ccc(N4CCC(C)(CN5CCC6(CC5)COc5c6ccc6c5C(=O)N(C5CCC(=O)NC5=O)C6)CC4)cc3)C2(C)C)ccc1C#N (relative stereo) [2-292]
IC50 (VCaP cells): 3 nM
IC50 (LNCAP FGC cells): 68500 nM

COc1cc(O[C@H]2C(C)(C)[C@H](NC(=O)c3ccc(N4CCC(CN5CCC6(CC5)COc5c6ccc6c5C(=O)N(C5CCC(=O)NC5=O)C6)(OC)CC4)cc3)C2(C)C)ccc1C#N (relative stereo) [2-293]
IC50 (VCaP cells): 5 nM
IC50 (LNCAP FGC cells): 88100 nM

N#Cc1ccc(O[C@H]2CC[C@H](NC(=O)c3ccc(N4CCC(F)(CN5CCC6(CC5)COc5c6ccc6c5C(=O)N(C5CCC(=O)NC5=O)C6)CC4)nn3)CC2)cc1Cl (relative stereo) [2-315]
IC50 (VCaP cells): 7 nM
IC50 (LNCAP FGC cells): 2450 nM

COc1cc(O[C@H]2CC[C@H](NC(=O)c3ccc(N4CCC(F)(CN5CCC6(CC5)COc5c6ccc6c5C(=O)N(C5CCC(=O)NC5=O)C6)CC4)nn3)CC2)ccc1C#N (relative stereo) [2-316]
IC50 (VCaP cells): 2 nM
IC50 (LNCAP FGC cells): 68200 nM

COc1cc(O[C@H]2C(C)(C)[C@H](NC(=O)c3ccc(N4CCC(CN5CCC6(CC5)COc5c6ccc6c5C(=O)N(C5CCC(=O)NC5=O)C6)CC4)cc3)C2(C)C)ccc1C#N (relative stereo) [2-318]
IC50 (VCaP cells): 1 nM
IC50 (LNCAP FGC cells): 9850 nM

C[C@H]1CC2(CCN(c3ccc(N4CCC(CN5CCC6(CC5)COc5c6ccc6c5C(=O)N(C5CCC(=O)NC5=O)C6)CC4)cc3)CC2)CN1c1ccc(C#N)c(Cl)c1 (stereo partly drawn) [2-103]
IC50 (VCaP cells): 36 nM
IC50 (LNCAP FGC cells): 850 nM
